Test results taken from EP3478687B1 (Daewoong Pharmaceutical Co., Ltd., priority 2016, dated 2018).
Counter-ions that a name gives are not always drawn.

How the values were obtained:
[1] = target: T1, Recombinant purified human BTK (Homo sapiens, UniProt Q06187); assay: BTK kinase inhibitory activity, ADP-Glo kinase assay (Promega V9071); type: biochemical; settings: for IC50: ATP 10 uM, 8 ng BTK per reaction, 1 hour 30 °C, chemiluminescence
T1 construct: purchased Promega V9071
Procedure, shortened: (§1)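 Recombinant human kinases in Tris pH 7.5 buffer with MgCl2, BSA and DTT (MnCl2 added for BTK), 4 ng JAK3 or 8 ng BTK per reaction. Poly(Glu4,Tyr1) 0.2 µg/µL with 5 µM (JAK3) or 10 µM (BTK) ATP, 1% DMSO, 1 h at 30 °C. ADP-Glo luminescence used to derive IC50.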

[2] = target: T2, Recombinant purified human JAK3 (Homo sapiens, UniProt P52333); assay: JAK3 kinase inhibitory activity, ADP-Glo kinase assay (Promega V9441); type: biochemical; settings: ATP 5 uM, 4 ng JAK3 per reaction, 1 hour 30 °C, chemiluminescence
T2 construct: purchased Promega V9441
T2 sequence (P52333 1-1124): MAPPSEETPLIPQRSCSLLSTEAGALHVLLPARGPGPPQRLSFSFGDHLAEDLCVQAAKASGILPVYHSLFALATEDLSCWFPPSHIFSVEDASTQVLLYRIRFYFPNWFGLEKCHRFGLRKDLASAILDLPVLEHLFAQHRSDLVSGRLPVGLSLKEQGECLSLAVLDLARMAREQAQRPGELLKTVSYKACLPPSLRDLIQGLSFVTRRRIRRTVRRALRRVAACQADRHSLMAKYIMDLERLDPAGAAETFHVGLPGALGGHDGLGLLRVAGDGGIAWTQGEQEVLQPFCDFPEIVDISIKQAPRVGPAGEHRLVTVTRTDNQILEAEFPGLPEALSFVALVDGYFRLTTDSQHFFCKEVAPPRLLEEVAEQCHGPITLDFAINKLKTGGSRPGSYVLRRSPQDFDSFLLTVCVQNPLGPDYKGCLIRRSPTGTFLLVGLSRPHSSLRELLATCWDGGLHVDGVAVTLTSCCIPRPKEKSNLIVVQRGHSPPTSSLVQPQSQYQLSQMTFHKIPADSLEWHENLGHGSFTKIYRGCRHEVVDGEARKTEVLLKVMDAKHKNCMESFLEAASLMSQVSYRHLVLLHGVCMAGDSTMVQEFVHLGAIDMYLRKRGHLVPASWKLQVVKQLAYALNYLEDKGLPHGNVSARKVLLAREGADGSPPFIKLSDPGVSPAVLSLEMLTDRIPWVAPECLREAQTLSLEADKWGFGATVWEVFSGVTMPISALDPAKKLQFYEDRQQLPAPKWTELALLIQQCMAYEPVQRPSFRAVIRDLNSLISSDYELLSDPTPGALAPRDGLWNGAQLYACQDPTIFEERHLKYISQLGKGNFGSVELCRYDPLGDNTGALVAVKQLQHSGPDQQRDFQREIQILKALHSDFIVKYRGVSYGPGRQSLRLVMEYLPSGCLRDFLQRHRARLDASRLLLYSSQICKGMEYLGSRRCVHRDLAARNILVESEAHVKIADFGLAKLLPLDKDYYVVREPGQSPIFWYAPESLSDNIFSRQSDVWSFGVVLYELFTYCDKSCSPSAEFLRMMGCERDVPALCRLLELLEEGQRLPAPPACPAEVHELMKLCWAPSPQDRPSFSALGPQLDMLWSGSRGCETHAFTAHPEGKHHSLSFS
Procedure, shortened: as §1

T1 sequence (Q06187 whole entry): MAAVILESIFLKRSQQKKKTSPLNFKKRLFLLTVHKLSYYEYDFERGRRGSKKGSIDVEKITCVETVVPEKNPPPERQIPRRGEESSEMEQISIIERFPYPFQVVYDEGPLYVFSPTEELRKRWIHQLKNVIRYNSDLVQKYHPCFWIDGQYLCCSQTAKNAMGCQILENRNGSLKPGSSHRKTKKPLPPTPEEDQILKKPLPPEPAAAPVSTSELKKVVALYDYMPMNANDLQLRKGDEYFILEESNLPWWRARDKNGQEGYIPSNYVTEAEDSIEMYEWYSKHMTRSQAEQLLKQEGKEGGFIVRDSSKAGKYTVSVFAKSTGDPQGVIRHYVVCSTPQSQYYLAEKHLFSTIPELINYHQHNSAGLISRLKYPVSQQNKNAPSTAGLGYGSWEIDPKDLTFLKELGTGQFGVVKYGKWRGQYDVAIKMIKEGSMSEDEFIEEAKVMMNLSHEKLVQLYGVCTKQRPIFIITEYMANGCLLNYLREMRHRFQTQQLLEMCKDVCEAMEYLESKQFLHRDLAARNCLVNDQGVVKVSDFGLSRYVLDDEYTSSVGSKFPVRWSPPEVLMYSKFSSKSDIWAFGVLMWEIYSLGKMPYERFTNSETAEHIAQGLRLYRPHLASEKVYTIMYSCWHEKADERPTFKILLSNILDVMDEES

Row | Compound | IC50 [1] [nM] | IC50 [2] [nM] | inhibition at 0.1 µM ([1]; @100nM compound) [%]
1 | N#C/C(=C\C1CC1)C(=O)N1CCC[C@@H](Oc2nc(Nc3cnn(C4CC4)c3)nc3[nH]nc(Cl)c23)C1 [Example 154, (R,E)-2-(3-((3-chloro-6-((1-cyclopropyl-1H-pyrazol-4-yl)amino)-1H-pyrazolo[3,4-d]pyrimidin-4-yl)oxy)piperidine-1-carbonyl)-3-cyclopropylacrylonitrile] | 2.5 | 54.2 | –
2 | CCn1cc(Nc2nc(N[C@H]3CN(C(=O)/C(C#N)=C/C4CC4)CC[C@H]3F)c3c(Cl)n[nH]c3n2)cn1 [Example 161, (E)-2-((3S,4R)-3-((3-chloro-6-((1-ethyl-1H-pyrazol-4-yl)amino)-1H-pyrazolo[3,4-d]pyrimidin-4-yl)amino)-4-fluoropiperidine-1-carbonyl)-3-cyclopropylacrylonitrile] | 1.3 | 5 | –
3 | C=CC(=O)N1CCC[C@@H](Sc2nc(Nc3cnn(CC)c3)nc3[nH]nc(Cl)c23)C1 [Example 111, (R)-1-(3-((3-chloro-6-((1-ethyl-1H-pyrazol-4-yl)amino)-1H-pyrazolo[3,4-d]pyrimidin-4-yl)thio)piperidin-1-yl)prop-2-en-1-one] | 1.3 | 1.1 | –
4 | C=CC(=O)Nc1cccc(Nc2nc(N[C@@H]3CCCN(C(=O)CC#N)C3)c3cc[nH]c3n2)c1 [Example 26, (R)-N-(3-(4-(1-(2-cyanoacetyl)piperidin-3-ylamino)-7H-pyrrolo[2,3-d]pyrimidin-2-ylamino)phenyl)acrylamide] | – | 39.2 | 10.3
5 | C=CC(=O)N1CC[C@@H](C)[C@@H](Nc2nc(Nc3cnn(CCC)c3)nc3[nH]nc(Cl)c23)C1 [Example 121, 1-((3R,4R)-3-((3-chloro-6-((1-propyl-1H-pyrazol-4-yl)amino)-1H-pyrazolo[3,4-d]pyrimidin-4-yl)amino)-4-methylpiperidin-1-yl)prop-2-en-1-one] | 4.9 | 18 | –
6 | C=CC(=O)N1CCC[C@@H](Nc2nc(Nc3cccnc3)nc3[nH]cc(Cl)c23)C1 [Example 137, (R)-1-(3-((5-chloro-2-(pyridin-3-ylamino)-7H-pyrrolo[2,3-d]pyrimidin-4-yl)amino)piperidin-1-yl)prop-2-en-1-one] | 19.6 | 2.6 | –
7 | C=CC(=O)N1CCC[C@@H](Sc2nc(Nc3cnn(C(C)(C)C)c3)nc3[nH]nc(Cl)c23)C1 [Example 112, (R)-1-(3-((6-((1-(tert-butyl)-1H-pyrazol-4-yl)amino)-3-chloro-1H-pyrazolo [3,4-d]pyrimidin-4-yl)thio)piperidin-1-yl)prop-2-en-1-one] | 1.8 | 1.6 | –
8 | C=CC(=O)N1CCC[C@@H](Nc2nc(Nc3ccc4ncsc4c3)nc3[nH]cc(C)c23)C1 [Example 81, (R)-1-(3-((2-(benzo[d]thiazol-6-ylamino)-5-methyl-7H-pyrrolo[2,3-d]pyrimidin-4-yl)amino)piperidin-1-yl)prop-2-en-1-one] | 25.5 | 3.8 | –
9 | C=CC(=O)N1CCC[C@@H](Nc2nc(Nc3ccc(N4CCOCC4)cc3)nc3[nH]cc(Cl)c23)C1 [Example 61, (R)-1-(3-((5-chloro-2-((4-morpholinophenyl)amino)-7H-pyrrolo[2,3-d]pyrimidin-4-yl)amino)piperidin-1-yl)prop-2-en-1-one] | 1.7 | 1.1 | –
10 | C=CC(=O)N1CC[C@@H](C)[C@@H](Nc2nc(Nc3cnn(CCN(CC)CC)c3)nc3[nH]nc(Cl)c23)C1 [Example 122, 1-((3R,4R)-3-((3-chloro-6-((1-(2-(diethylamino)ethyl)-1H-pyrazol-4-yl)amino)-1H-pyrazolo[3,4-d]pyrimidin-4-yl)amino)-4-methylpiperidin-1-yl)prop-2-en-1-one] | 6 | 8.1 | –
11 | C=CC(=O)N1CCC[C@@H](Nc2nc(Nc3cnn(CC)c3)nc3[nH]ncc23)C1 [Example 33, (R)-1-(3-(6-(1-ethyl-1H-pyrazol-4-ylamino)-1H-pyrazolo[3,4-d]pyrimidin-4-ylamino)piperidin-1-yl)prop-2-en-1-one] | 1.6 | 4.9 | –
12 | C=CC(=O)N1CCC[C@@H](Nc2nc(Nc3cnn(C)c3)nc3[nH]ccc23)C1 [Example 14, (R)-1-(3-(2-(1-methyl-1H-pyrazol-4-ylamino)-7H-pyrrolo[2,3-d]pyrimidin-4-ylamino)piperidin-1-yl)prop-2-en-1-one] | 19.2 | 1.1 | –
13 | CC(C)/C=C(\C#N)C(=O)N1CCC[C@@H](Nc2nc(Nc3cnn(C4CC4)c3)nc3[nH]nc(Cl)c23)C1 [Example 162, (R,E)-2-(3-((3-chloro-6-((1-cyclopropyl-1H-pyrazol-4-yl)amino)-1H-pyrazolo[3,4-d]pyrimidin-4-yl)amino)piperidine-1-carbonyl)-4-methylpent-2-enenitrile] | 4.8 | 3 | –

The next compounds have a lower IC50 [2] than those just listed; values first:

Row | IC50 [1] [nM] | IC50 [2] [nM] | inhibition at 0.1 µM ([1]; @100nM compound) [%] | Compound
14 | 2.3 | 0.9 | – | C=CC(=O)N1CCC[C@@H](Sc2nc(Nc3cnn(CC(F)(F)F)c3)nc3[nH]nc(Cl)c23)C1 [Example 114, (R)-1-(3-((3-chloro-6-((1-(2,2,2-trifluoroethyl)-1H-pyrazol-4-yl)amino)-1H-pyrazolo [3,4-d]pyrimidin-4-yl)thio)piperidin-1-yl)prop-2-en-1-one]
15 | 1.8 | 0.8 | – | C=CC(=O)N1CCC[C@@H](Nc2nc(Nc3cnn(C(C)C)c3)nc3[nH]nc(Cl)c23)C1 [Example 50, (R)-1-(3-(3-chloro-6-(1-isopropyl-1H-pyrazol-4-ylamino)-1H-pyrazolo[3,4-d]pyrimidin-4-ylamino)piperidin-1-yl)prop-2-en-1-one]
16 | 11.8 | 0.6 | – | C=CC(=O)N1CCC[C@@H](Nc2nc(Nc3cnn(CCOC)c3)nc3[nH]ccc23)C1 [Example 17, (R)-1-(3-(2-(1-(2-methoayethyl)-1H-pyrazol-4-ylamino)-7H-pyrrolo[2,3-d]pyrimidin-4-ylamino)piperidin-1-yl)prop-2-en-1-one]
17 | 1.3 | 0.6 | – | C=CC(=O)N1CCC[C@@H](Sc2nc(Nc3cnn(CC(F)F)c3)nc3[nH]nc(Cl)c23)C1 [Example 108]
18 | 8.7 | 0.5 | – | C=CC(=O)N1CCC[C@@H](Nc2nc(Nc3cnn(CCN(CC)CC)c3)nc3[nH]ccc23)C1 [Example 19, (R)-1-(3-(2-(1-(2-(diethylamino)ethyl)-1H-pyrazol-4-ylamino)-7H-pyrrolo[2,3-d]pyrimidin-4-ylamino)piperidin-1-yl)prop-2-en-1-one]
19 | 1 | 0.5 | – | C=CC(=O)N1CCC[C@@H](Nc2nc(Nc3cnn(CC(F)F)c3)nc3[nH]nc(Cl)c23)C1 [Example 90, (R)-1-(3-((3-chloro-6-((1-(2,2-difluoroethyl)-1H-pyrazol-4-yl)amino)-1H-pyrazolo [3,4-d]pyrimidin-4-yl)amino)piperidin-1-yl)prop-2-en-1-one hydrochloride]
20 | 0.9 | 0.5 | – | C=CC(=O)N1CC[C@@H](F)[C@@H](Nc2nc(Nc3cnn(CC)c3)nc3[nH]nc(Cl)c23)C1 [Example 193, 1-((3S,4R)-3-((3-chloro-6-((1-ethyl-1H-pyrazol-4-yl)amino)-1H-pyrazolo[3,4-d]pyrimidin-4-yl)amino)-4-fluoropiperidin-1-yl)prop-2-en-1-one]
21 | 4.5 | 0.4 | – | C=CC(=O)N1CCC[C@@H](Nc2nc(Nc3cnn(CC)c3)nc3[nH]ccc23)C1 [Example 21, (R)-1-(3-(2-(1-ethyl-1H-pyrazol-4-ylamino)-7H-pyrrolo[2,3-d]pyrimidin-4-ylamino)piperidin-1-yl)prop-2-en-1-one]
22 | 10.1 | 0.4 | – | C=CC(=O)N1CCC[C@@H](Nc2nc(Nc3cnn(C(F)F)c3)nc3[nH]ccc23)C1 [Example 16, (R)-1-(3-(2-(1-(difluoromethyl)-1H-pyrazol-4-ylamino)-7H-pyrrolo[2,3-d]pyrimidin-4-ylamino)piperidin-1-yl)prop-2-en-1-one]
23 | 0.864 | 0.138 | – | C=CC(=O)N1CCC[C@@H](Nc2nc(Nc3cnn(C4CC4)c3)nc3[nH]cc(C#N)c23)C1 [Example 89, (R)-4-((1-acryloylpiperidin-3-yl)amino)-2-((1-cyclopropyl-1H-pyrazol-4-yl)amino)-7H-pyrrolo[2,3-d]pyrimidine-5-carbonitrile]
